Read-outs that look alike come from different tables or passages of the source. Ends that are not written are not given here.
Key:
E. coli ATCC® 25922 [1] = type: cell-based, Escherichia coli; details: for MIC: 1.56–200 µM, visual inspection, triplicate, three independent assays; for MIC / MBC: 24 h 37 °C; for MBC: plating on Mueller-Hinton agar, absence of growth
Procedure: (§1) The nine AMPs identified in the initial screening were evaluated at concentrations between 1.56–200 µM, against E. coli ATCC® 25922, S. aureus ATCC® 29213, E. faecalis ATCC® 49532, P. aeruginosa ATCC® 9027, and K. pneumoniae ATCC® BAA-1705 (Supplementary Figures S2–S6). […] Only PvAMP66 and PvAMP172 reached the MBC for S. aureus at 50 µM and 100 µM, respectively (Table 2).
(§2) The evaluation of the antimicrobial activity of the peptides was conducted using the CLSI’s broth microdilution method for bacterial susceptibility testing. For the screening phase, peptides were evaluated at a single 30 μM concentration, in triplicate and in three independent assays, against the E. coli ATCC® 8739, E. coli ATCC® 25922, S. aureus ATCC® 6538, or S. aureus ATCC® 29213 reference USP and CLSI strains. For the determination of MIC, MBC, or IC50, peptides or antibiotics were evaluated in concentrations between 1.56–200 µM. These evaluations were conducted in triplicate and in three independent assays, against the E. coli ATCC® 25922, S. aureus ATCC® 29213, E. faecalis ATCC® 49532, P. aeruginosa ATCC® 9027, and K. pneumoniae ATCC® BAA-1705, or the clinically isolated MDR strain. In detail, 1 mL of a glycerol stock solution of the ATCC® or clinically isolated bacterial strain was added to 9 mL of Mueller-Hinton Broth and incubated for 18 h, 180 rpm and 37 °C (Incubator 1000, Heidolph Instruments, Schwabach, Germany). After the incubation, 1 mL of the previous solution was transferred to a new recipient containing 9 mL of fresh Mueller-Hinton broth and incubated for 4 h, 180 rpm and 37 °C (Incubator 1000, Heidolph Instruments, Schwabach, Germany). During the second incubation, the peptides or the antibiotics were dissolved in PBS pH 7.20 in concentrations between 19.53–2500 µM (MC5 Micro Balance, Sartorius AG, Göttingen, Germany). An amount of 10 µL of either peptide or antibiotic was dispensed in triplicate in 96-well flat bottom culture plates, along with 10 µL of PBS (Negative activity control), BTM-P1 (Positive activity control), or 10 µL of Mueller-Hinton broth (Blank); then, 110 µL of Mueller-Hinton broth was poured in all wells. Following this, the bacteria were suspended in Mueller-Hinton broth up to a concentration of approximately 1.50 × 10^8 CFU/mL, as measured by optical density at 600 nm between 0.06 to 0.11 (0.5 McFarland standard), in a Multiskan SkyHigh spectrophotometer (ThermoFisher Scientific, Waltham, MA, USA). Amounts of 5 µL of the 1.50 × 10^8 CFU/mL suspension were added to each well (except for the blank) for a final well concentration of approximately 6 × 10^6 CFU/mL. The plate was incubated for 24 h at 37 °C (BE 500, Memmert GmbH, Büchenbach, Germany) and optical density was measured at 600 nm in a Multiskan SkyHigh spectrophotometer (ThermoFisher Scientific, Waltham, MI, USA). Following the measurement of optical density, plates were visually inspected to determine the MIC. Subsequently, 100 µL of the concentration associated to the MIC and 100 µL of the next higher concentration were added to Petri dishes containing Mueller-Hinton Agar. The dishes were then incubated for 24 h at 37 °C (BE 500, Memmert GmbH, Büchenbach, Germany). After incubation, the Petri dishes were visually inspected, and the MBC was determined in the absence of growth. IC50 values were interpolated from regressions with correlation values above 0.70. Growth inhibition percentages were calculated as follows: Growth inhibition %=1−AbsPEPTIDE or ANTIBIOTIC−Median AbsBLANK/Median AbsPBS−Median AbsBLANK×100

P. aeruginosa ATCC® 9027 = type: cell-based, Pseudomonas aeruginosa; details: for MIC: 1.56–200 µM, 24 h 37 °C, visual inspection, triplicate, three independent assays; for IC50: growth inhibition OD600, 95% confidence interval in parentheses; for MBC: plating on Mueller-Hinton agar, absence of growth
Procedure: as §1, §2

E. coli ATCC® 8739 = type: cell-based, Escherichia coli; details: CLSI broth microdilution, Mueller-Hinton broth, peptide 30 µM, ~6 × 10^6 CFU/mL, 24 h 37 °C, OD600; triplicate, three independent assays; NA = no activity
Procedure: (§3) Activity screening was conducted using the broth microdilution method at a fixed peptide concentration of 30 µM against E. coli ATCC® 8739 and 25922, as well as S. aureus ATCC® 6538 and 29213. The bacterial density used for screening was approximately 6 × 10^6 CFU/mL [30]. Peptide activity measurements were conducted in terms of the growth inhibition percentage. No dose-response curves were generated during the screening phase as a resource optimization strategy in the initial activity evaluation. […] For S. aureus ATCC® 6538 and S. aureus ATCC® 29213, growth inhibition ranged from 0% to 140% and 0% to 98%, respectively (Table 1).
as §2

E. coli ATCC® 25922 [2] = type: cell-based, Escherichia coli; details: CLSI broth microdilution, Mueller-Hinton broth, peptide 30 µM, ~6 × 10^6 CFU/mL, 24 h 37 °C, OD600; triplicate, three independent assays; NA = no activity
Procedure: as §3, §2

S. aureus ATCC® 29213 [3] = type: cell-based, Staphylococcus aureus; details: for IC50: growth inhibition OD600, 95% confidence interval in parentheses; for MIC: 1.56–200 µM, 24 h 37 °C, visual inspection, triplicate, three independent assays
Procedure: as §1, §2

S. aureus ATCC® 6538 = type: cell-based, Staphylococcus aureus; details: CLSI broth microdilution, Mueller-Hinton broth, peptide 30 µM, ~6 × 10^6 CFU/mL, 24 h 37 °C, OD600; triplicate, three independent assays; NA = no activity
Procedure: as §3, §2

S. aureus ATCC® 29213 [4] = type: cell-based, Staphylococcus aureus; details: CLSI broth microdilution, Mueller-Hinton broth, peptide 30 µM, ~6 × 10^6 CFU/mL, 24 h 37 °C, OD600; triplicate, three independent assays; NA = no activity
Procedure: as §3, §2

MDR K. pneumoniae = test: Isobologram analysis and FICI, PvAMP66 with gentamicin; type: cell-based, Klebsiella pneumoniae
Procedure: Given the intermediate resistance to gentamicin, an isobologram analysis was used as a proof-of-concept to evaluate the interaction between PvAMP66 and the antibiotic. The growth inhibition of the clinical isolate was measured using peptide concentrations of 0.10–100 µM, and gentamicin concentrations of 0.10–50 µM (Supplementary Figure S10). Combined IC50 values were calculated and plotted in a graph with a secant line representing the IC50 values for PvAMP66 and gentamicin when used alone (Figure 2a). […] The concentrations adjacent to the aforementioned data point were evaluated. […] Additionally, a Fractional Inhibitory Concentration Index (FICI) of 0.59 was obtained.
For the isobologram analysis concentrations, ranges of 1.56 µM to 200 µM of the peptide and 0.07 µM to 100 µM of the gentamicin were used. The experiments were conducted in triplicate and repeated in two independent assays. The IC50 for each combination was determined using either logarithmic or linear regression. Then, when achieving 50% growth inhibition, the concentrations of the peptide and gentamicin were recorded and used to create an isobologram graph with a ‘peptide concentration’ vs. ‘gentamicin concentration’ plot. […] The fractional inhibitory concentration index was calculated as follows: FICI=Combined MICAntibiotic/MICAntibiotic+Combined MICPeptide/MICPeptide

[5] = test system: multidrug-resistant (MDR) strain of K. pneumoniae, clinical isolate; test: microbe, parasite or virus in culture; type: cell-based, Klebsiella pneumoniae
Procedure: A multidrug-resistant (MDR) strain of K. pneumoniae was identified and isolated from a tertiary-level hospital in Medellin, Colombia, using the VITEK-2 system (bioMérieux, Marcy-l’Étoile, France). The MDR strain was evaluated against several antibiotics at concentrations of 1.56–100 μM. […] In contrast, the strain was susceptible to doxycycline (Supplementary Figure S7g) and chloramphenicol (Supplementary Figure S7h), with MICs of 50 μM and 100 µM, respectively (Table 3). […] All of P. verdolaga’s AMPs were evaluated against the clinical isolate at concentrations of 1.56–200 µM (Supplementary Figure S8). […] A growth inhibition kinetic assay was conducted. […] All of P. verdolaga’s peptides at 100 μM induced morphological changes in the MDR K. pneumoniae, indicating membrane interactions, even though no significant inhibition was observed (Supplementary Figure S9).
as §2, with “Growth inhibition percentages were calculated as follows: Growth inhibition %=1−AbsPEPTIDE or ANTIBIOTIC−Median AbsBLANK/Median AbsPBS−Median AbsBLANK×100” left out

[6] = growth inhibition OD600, interpolated from regression, 95% confidence interval in parentheses, read-out: IC50

Compound	MIC (E. coli ATCC® 25922 [1])	IC50 (E. coli ATCC® 25922 [1]; [6])	MBC (E. coli ATCC® 25922 [1])	IC50 (E. coli ATCC® 25922 [1]; same result in µg/mL)	MIC (P. aeruginosa ATCC® 9027)	IC50 (P. aeruginosa ATCC® 9027)	MBC (P. aeruginosa ATCC® 9027)	E. coli ATCC® 8739 (Inhibition %) (E. coli ATCC® 8739)	E. coli ATCC® 25922 (Inhibition %) (E. coli ATCC® 25922 [2])	IC50 (S. aureus ATCC® 29213 [3])	MIC (S. aureus ATCC® 29213 [3])	MBC (S. aureus ATCC® 29213 [3]; plating on Mueller-Hinton agar, absence of growth)	S. aureus ATCC® 6538 (Inhibition %) (S. aureus ATCC® 6538)	S. aureus ATCC® 29213 (Inhibition %) (S. aureus ATCC® 29213 [4])	IC50 (MDR K. pneumoniae; Klebsiella pneumoniae, with PvAMP66 9.85 µM, read-out: combined IC50 for gentamicin)	combined MIC, gentamicin (MDR K. pneumoniae; with 12.50 µM PvAMP66)	IC50 ([5]; Klebsiella pneumoniae)	MIC ([5]; Klebsiella pneumoniae, MDR K. pneumoniae clinical isolate)	Classification at 10^6 CFU/mL ([5]; MDR K. pneumoniae clinical isolate, CLSI classification)	MIC ([5]; MDR K. pneumoniae clinical isolate, peptides 1.56–200 µM, antibiotics 1.56–100 µM, 24 h 37 °C)
QCRKLCFRNRCLTYCRGR-NH2 (disulfide (positions not given here)) [PvAMP177, predicted P. verdolaga AMP]	25 µM	25.3 µM	50 µM	6.64 µg/mL	50 µM	25.9 µM	50 µM	93.07 ± 7.11 %	56.76 ± 3.64 %	138 µM	–	–	–	–	–	–	–	–	–	–
CRKLCFRNRCLTYCRGR-NH2 (disulfide (positions not given here)) [PvAMP172, predicted P. verdolaga AMP]	50 µM	42.9 µM	50 µM	–	50 µM	48.4 µM	50 µM	64.78 ± 5.46 %	47.43 ± 2.76 %	–	100 µM	100 µM	–	–	–	–	–	–	–	–
IIKKIWK-NH2 [PvAMP32]	100 µM	94.7 µM	100 µM	–	100 µM	124 µM	100 µM	30.73 ± 5.21 %	21.19 ± 3.82 %	108 µM	50 µM	–	43.62 ± 4.90 %	33.17 ± 8.46 %	–	–	–	–	–	–
CNC(C)C1CCC(N)C(OC2C(N)CC(N)C(OC3OCC(C)(O)C(NC)C3O)C2O)O1 (stereo not shown) [Gentamicin, gentamicin]	–	–	–	–	–	–	–	–	–	–	–	–	–	–	3.12 µM	4.70 µM	33.4 µM	9.31 µg/mL	Intermediate resistant	50.00 µM
GRIFRLLRK-NH2 [PvAMP82]	100 µM	–	100 µM	–	200 µM	–	200 µM	64.01 ± 4.28 %	74.94 ± 14.27 %	–	–	–	43.03 ± 6.37 %	43.44 ± 10.24 %	–	–	–	–	–	–

From PMC10812672, “Short Antimicrobial Peptide Derived from the Venom Gland Transcriptome of Pamphobeteus verdolaga Increases Gentamicin Susceptibility of Multidrug-Resistant Klebsiella pneumoniae” (Antibiotics, 2023)
